Values quoted from earlier work in paper PMC5657425 (Pediatric blood & cancer, 2016).

Legend:
[1] = tested on: well-differentiated or dedifferentiated liposarcoma
[2] = tested on: PPTP solid tumor xenografts
Rh18 xenograft = settings: single agent

## CCOc1cc(C(C)(C)C)ccc1C1=N[C@@](C)(c2ccc(Cl)cc2)[C@@](C)(c2ccc(Cl)cc2)N1C(=O)N1CCN(CCCS(C)(=O)=O)CC1 [RG7112]
[1]
  adverse effect in phase 1 and 2 evaluations: thrombocytopenia
[1]; phase 2, well-differentiated or dedifferentiated liposarcoma
  stable disease among 20 patients treated: 14
[2]; osteosarcoma panel
  response of the osteosarcoma panel: no response
[2]; prior PPTP testing
  objective regressions in twenty six solid tumor models with wild-type TP53: five

## COc1cc(C(=O)O)ccc1NC(=O)[C@@H]1N[C@@H](CC(C)(C)C)[C@](C#N)(c2ccc(Cl)cc2F)[C@H]1c1cccc(Cl)c1F [RG7388]
Rh18 xenograft
  response of Rh18: unresponsive
